Results on eight compounds are retold here after article PMC5049785, “Characterization of Novel Antimalarial Compound ACT-451840: Preclinical Assessment of Activity and Dose–Efficacy Modeling” (PLoS Medicine, 2016).

Where two headings read alike, the source gives them in different places.

Test [1] has as its system P. falciparum clinical isolates (Papua, Indonesia). The test can be described thus: Ex vivo drug susceptibility, P. falciparum clinical isolates. Type of test: cell-based, Plasmodium falciparum. The conditions noted are these: Plasmodium falciparum, read-out: median IC50. As for the experimental part:
(§1) […]. Thick blood films made from each well were stained with 5% Giemsa solution for 30 min and examined microscopically. The number of schizonts per 200 asexual-stage parasites was determined for each drug concentration and normalized to the control well.

Test [2] relates to P. vivax clinical isolates (Papua, Indonesia). Nature of the test: Ex vivo drug susceptibility, P. vivax clinical isolates. It is filed as cell-based, Plasmodium vivax. The note with it: Plasmodium vivax, read-out: median IC50. As for the experimental part: as §1
Test [3] deals with P. falciparum K1 (Thailand). Nature of the test: [3H]-hypoxanthine incorporation assay, K1. Type of test: cell-based, Plasmodium falciparum. The note with it: Plasmodium falciparum.
The subject of test [4] is P. falciparum 7G8 (Brazil). The test can be described thus: [3H]-hypoxanthine incorporation assay, 7G8. Type of test: cell-based, Plasmodium falciparum. The note with it: Plasmodium falciparum.
The test system of test [5] is P. falciparum TM90C2A (Thailand). Nature of the test: [3H]-hypoxanthine incorporation assay, TM90C2A. The conditions noted are these: Plasmodium falciparum. Type of test: cell-based, Plasmodium falciparum.
The test system of test [6] is P. falciparum V1/S (Vietnam). Nature of the test: [3H]-hypoxanthine incorporation assay, V1/S. It is filed as cell-based, Plasmodium falciparum. The note with it: Plasmodium falciparum, read-out: 50% inhibitory concentration (IC50).
In test [7] the test system is P. falciparum D6 (Sierra Leone). Nature of the test: [3H]-hypoxanthine incorporation assay, D6. It is filed as cell-based, Plasmodium falciparum. The conditions noted are these: Plasmodium falciparum.
For test [8], the system named is Cam3.II^C580Y parasites. Nature of the test: microbe, parasite or virus in culture. The note with it: for IC50: Plasmodium falciparum, 72 h. Type of test: cell-based, P. falciparum. Here is the method:
(§2) Parasites were cultured at Columbia University Medical Center (New York, USA) as previously described (1). Cam3.II and V1/S parasites, which had been genetically engineered to express K13 wild-type or K13 C580Y were seeded in a 96-well plate at 0.2% parasitemia and 1% hematocrit (2). […] Parasites were then stained with SYBR Green I (Invitrogen) and MitoTracker Deep Red (ThermoFisher Scientific) for 20 minutes at 37 °C (3). Stained parasites were detected using a BD Accuri 6 Flow Cytometer, and analyzed using FlowJo Software. IC50 values were determined by nonlinear regression using GraphPad Prism 6.0. For statistical analyses, Student’s t-tests were performed, and significance was set at P < 0.05.
(§3) Values indicate mean ± SEM, shown in nM. Significance determined by Student's t-test against parental lines.

In test [9] the test system is Cam3.II^rev parasites (K13 wild-type). The test can be described thus: microbe, parasite or virus in culture. Type of test: cell-based, P. falciparum. The note with it: for IC50: Plasmodium falciparum, 72 h. Here is the method: as §2, §3
The test system of test [10] is GFP-transfected P. berghei ANKA strain. Nature of the test: In vivo efficacy, P. berghei mouse model. Also on record: species or system Plasmodium berghei in female NMRI mice. The conditions noted are these: 100 mg/kg quadruple-dose regimen. As for the experimental part:
In vivo efficacy against P. berghei was conducted at the Swiss TPH as previously described, with the modification that female NMRI mice from Harlan (Horst, The Netherlands) (n = 3) were infected with a GFP-transfected P. berghei ANKA strain (kindly donated by A. P. Waters and C. J. Janse, Leiden University Medical Center, The Netherlands) and parasitemia was determined using standard flow cytometry techniques. ACT-451840 was dissolved or suspended in corn oil before dosing and administered 24 h after infection (single-dose regimen) or 24, 48, and 72 h after infection (triple-dose regimen). With the single-dose regimen, blood was collected on Day 3 (72 h after infection). Samples for the triple-dose regimens were collected on Day 4 (96 h after infection). Antimalarial activity was calculated as the difference between the mean percent parasitemia for the control and treated groups expressed as a percent relative to the control group, consisting of five mice. Control mice were euthanized on Day 4 in order to prevent death typically occurring on Day 6. For the consistency in PK/PD modeling, Day 5 instead of Day 6 was considered the day of death, because treated animals were always euthanized one day before their natural death for animal welfare reasons. Animals were considered cured if there were no detectable parasites on Day 30 post-infection. To confirm the reliability of this assumption, blood from the surviving mice in curative experiments was inoculated into uninfected mice, and no parasitemia developed in these mice even after 30 d. The antimalarial efficacy is defined either as antimalarial activity or as survival: the two readouts of the P. berghei murine model.

Test [11] has as its system P. falciparum NF54 strain. The test can be described thus: [3H]-hypoxanthine incorporation assay, NF54. Type of test: cell-based, Plasmodium falciparum. The note with it: Plasmodium falciparum. Here is the method:
In vitro time-, stage-, and concentration-dependent effects were assessed using pyrimethamine as a stage-specific and slow-acting control, as described elsewhere.

Test [12] has as its system P. falciparum W2 (Vietnam). Nature of the test: [3H]-hypoxanthine incorporation assay, W2. Type of test: cell-based, Plasmodium falciparum. The note with it: Plasmodium falciparum.
For test [13], the system named is P. falciparum PfNF54^0230/N3. Nature of the test: In vivo efficacy, P. falciparum mouse model (GSK). The note with it: oral quadruple-dose regimen, once a day. Here is the method:
In vivo efficacy against P. falciparum was conducted at GSK according to the standard assay previously described. Female NODscidIL2Rγnull mice were engrafted with human erythrocytes and infected with the isolate P. falciparum PfNF54^0230/N3, a strain developed at GSK for growth in engrafted mice. […] Blood samples were collected on Days 3, 4, 5, 6, and 7 (n = 3 per time point) for parasitemia measurement by flow cytometry. Similarly, blood samples were collected at 0.5, 1, 2, 4, 6, 8, 12, 24, and 48 h after a single administration of 4.7 mg/kg of ACT-451840 to a parallel group of three P. falciparum-infected mice for PK parameters determination. Results are expressed exclusively as antimalarial activity in the P. falciparum murine model.

For test [14], the system named is V1/S parasites (K13 wild-type). The test can be described thus: microbe, parasite or virus in culture. Type of test: cell-based, P. falciparum. Here is the method: as §2, §3
The subject of test [15] is V1/S^C580Y parasites. The test can be described thus: microbe, parasite or virus in culture. Type of test: cell-based, P. falciparum. Here is the method: as §2, §3
The test system of test [16] is P. falciparum strain 3D7 (MR4). Also on record: method as in PMID 16735432. The note with it: 10 x IC50; cited from earlier work.
The mark [17] stands for this setting: P. falciparum clinical isolates, n = 27 (closed symbols).
Where [18] appears, read: P. vivax clinical isolates, n = 34 (open symbols).
Where [19] appears, read: K1, read-out: 50% inhibitory concentration (IC50).
The mark [20] stands for this setting: 7G8, read-out: 50% inhibitory concentration (IC50).
Setting [21] is: read-out: 50% inhibitory concentration (IC50).
Where [22] appears, read: D6, read-out: 50% inhibitory concentration (IC50).

As to `CCN(CC)Cc1cc(Nc2ccnc3cc(Cl)ccc23)ccc1O` [Amodiaquine], the IC50 in [1] (setting [17]) was 16.8 nM; in test [2] (setting [18]), 12.3 nM.

Take `C[C@H]1[C@H](OC(=O)CCC(=O)O)O[C@@H]2O[C@@]3(C)CC[C@H]4[C@H](C)CC[C@@H]1[C@@]24OO3` [Artesunate, artesunate]: the IC50 worked out at 2.7 ± 0.4 nM in test [3] (setting [19]); 1.8 ± 0.2 nM in test [4] (setting [20]); 4.6 ± 1.7 nM in [5] (setting [21]); 3.2 ± 0.5 nM in test [6]; 7.1 ± 1.9 nM in test [7] (setting [22]); 6.6 ± 0.3 nM in test [8]. Also, the figures for the IC50 in test [9], in [1] (setting [17]) and in test [2] (setting [18]) were 6.7 ± 0.7 nM, 2.6 nM and 2.9 nM, respectively. Further, the infected mice cured in [10] is on record as 50%.

For the compound `CCN(CC)CCCC(C)Nc1ccnc2cc(Cl)ccc12` (stereo not shown) [Chloroquine, chloroquine], the IC50 in [11] (NF54, read-out: 50% inhibitory concentration (IC50)) stood at 11 ± 2.1 nM; in test [3] (setting [19]), 303 ± 37 nM; in [12] (W2, read-out: 50% inhibitory concentration (IC50)), 326 ± 38 nM; in test [4] (setting [20]), 137 ± 21 nM; in test [5] (setting [21]), 174 ± 19 nM; in [6], 458 ± 66 nM. Besides, the IC50 in test [7] (setting [22]) stood at 16 ± 1.2 nM; in test [1], 101 nM; in test [2], 43.9 nM. The “effective dose resulting in 90% antimalarial activity (ED90)” value in test [13] amounted to 4.9 mg/kg.

As for `OC(c1cc(C(F)(F)F)nc2c(C(F)(F)F)cccc12)C1CCCCN1` (stereo not shown) [Mefloquine, mefloquine], the IC50 fold change in test [8] (Cam3.II^C580Y versus Cam3.II^rev) is 1.2; in [9] (Cam3.II^rev (parental reference line)), 1.0; in [14] (V1/S (parental reference line)) it was 1.0; in [15] (V1/S^C580Y versus V1/S) it was 0.6. The IC50 in test [8] is 14 ± 0.9 nM; in test [9], 12 ± 1.5 nM; in test [14] (Plasmodium falciparum, 72 h), 1.3 ± 0.4 nM; in test [15] (Plasmodium falciparum, 72 h) it was 0.8 ± 0.3 nM; in [1] (setting [17]), 13.4 nM; in test [2] (setting [18]) it was 15.2 nM.

Consider `Clc1ccc2c(N3CCN(CCCN4CCN(c5ccnc6cc(Cl)ccc56)CC4)CC3)ccnc2c1` [Piperaquine], for which the IC50 in test [1] (setting [17]) came out at 25 nM; in test [2] (setting [18]), 14.8 nM.

As for `CCc1nc(N)nc(N)c1-c1ccc(Cl)cc1` [Pyrimethamine, pyrimethamine], the IC50 in [11] (read-out: 50% inhibitory concentration (IC50), NF54, no resistance, mean ± SD, n = 3) is 18 ± 0.8 nM; in test [3] (read-out: 50% inhibitory concentration (IC50), K1, resistance CQ, SUL, PYR, CYC, mean ± SD), 10100 nM; in [12] (read-out: 50% inhibitory concentration (IC50), W2, resistance CQ, SUL, PYR, CYC, mean ± SD) it was 13900 nM; in [4] (read-out: 50% inhibitory concentration (IC50), 7G8, resistance CQ, PYR, CYC, mean ± SD), 10500 nM; in test [5] (read-out: 50% inhibitory concentration (IC50), resistance CQ, PYR, MFQ, CYC, mean ± SD), 19200 nM; in [6] (V1/S, resistance CQ, SUL, PYR, CYC, mean ± SD) it was 21900 nM. In [7] (read-out: 50% inhibitory concentration (IC50), D6, resistance MFQ, mean ± SD), the IC50 is 5.4 ± 1.3 nM.

In the case of `C[C@@H]1CC[C@H]2[C@@H](C)C(=O)O[C@@H]3O[C@@]4(C)CC[C@@H]1[C@]32OO4` [artemisinin], the “parasite clearance time to kill 99.9% of the initial population” value in [16] was “less than 24 h”.

`O=C1C(O)=C([C@H]2CC[C@H](c3ccc(Cl)cc3)CC2)C(=O)c2ccccc21` [atovaquone]: the “lag phase in the killing curve” value in [16] is given as 48 h.
